Where two headings read alike, the source gives them in different places.
Columns and labels:
hDGKalpha(1-735)-N-His = hDGKalpha(1-735)-N-His (Homo sapiens (Human), UniProt P23743); test: DGKalpha ADP Glo assay (in vitro DGK inhibition); assay type: biochemical; details: DLG 125 uM, ATP 25 μM, DGK α 4 nM, 1 hour reaction
Procedure, shortened: (§1)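 His-tagged human DGKα (4 nM) and DGKζ (2 nM) phosphorylate DLG presented in DLG/PS/PC liposomes using ATP; reaction run 1 hour. ADP formed measured by ADP-Glo luminescence. Compounds tested as 11-point 1:3 dose response […], 2% DMSO final.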

hDGKzeta(1-928)-N-His = hDGKzeta(1-928)-N-His (Homo sapiens (Human), UniProt Q13574); test: DGKzeta ADP Glo assay (in vitro DGK inhibition); assay type: biochemical; details: DLG 125 uM, ATP 50 μM, DGK ζ 2 nM, 1 hour reaction
Procedure, shortened: as §1

primary human T-cells [1] = test: Proliferation assay after 5 days (CellTiter-Glo, CD3 stimulation; PBS counter screen); assay type: cell-based; details: Homo sapiens, T-cell, 120 h, CD3 stimulation; for Emax: 5 days, normalized to reference compound A1 as stimulator control = 100%, DMSO neutral control, read-out: Emax proliferation (% activation); for EC50: primary human T-cells, CellTiter-Glo after 5 days, EC50 of fitted sigmoidal curve, read-out: Tcell Proliferation CD3 EC50
Procedure, shortened: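 Primary human T-cells, with or without CD3 stimulation, exposed to compounds for 5 days; cell number read as ATP by CellTiter-Glo 2.0 luminescence after 45 min equilibration and 15 min reagent incubation at room temperature. Compounds activating unstimulated cells or reducing viability were flagged.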

MV-3 cells = test: T-cell - TCB - MV3 killing assay (MCSP-TCB, RFP object count by Incucyte); assay type: cell-based, human; details: Homo sapiens, MV-3, 120 h, 5 d; for Emax: normalized: MCSP-TCB only = neutral control, 20 μM reference compound A1 = 100%, read-out: MSCP TCB killing MV-3 cells 5 d Emax; for EC50: primary human T-cells + MCSP-TCB, MV-3 RFP cells, read-out: MSCP TCB killing MV-3 cells 5 d EC50
primary human T-cells [2] = system: primary human T-cells
Procedure: As readouts for T-cell activation, IL2 secretion after 24 hours and proliferation after 5 days was measured. Increases in IL2 secretion and proliferation upon compound treatment were assessed as the % of the maximum of reference compound A1. […] As a counter screen and to make sure that no unwanted TCR-independent activation was triggered, PBS conditions were run for all compounds.
For coating of plates, PBS++ with PBS−− or PBS++ with CD3 antibody (concentration depending on donor and determined by CD3 titrations) was added 100 μl/well to Poly-D Lysine coated 96-well plates. Plates were sealed and incubated at room temperature for 3 hours on a table-top rocking platform. After incubation, plates were washed once with PBS−− and filled with 40 μl/well culture medium only. Compounds were then added (see next section) to medium only plates. After 3 hours of culturing the T-cells, cells were filtered through a cell strainer (Miltenyi Biotech, #130-041-407), counted again and concentration was adjusted to 1.25 Mio/ml.
Cells were then seeded 80 μl/well to the 40 μl/well including dispensed compounds according to plate layout. By adding cells, compounds were further diluted 1:3, and resulting in 100 k cells/120 μl/well. After 24 hours 40 μl of supernatant was collected carefully from the top while not disturbing the cells and transferred into a round bottom 96 well plate. Collected and frozen supernatant was used for detection of IL2 using the IL-2 Human ProQuantum Immunoassay Kit (Invitrogen) or using the Human IL-2 ELISA Kit (Thermo Fisher).
Compounds were added in a 5 or 6pt dose response with the Tecan D300e Digital Dispenser, all conditions 3 times more concentrated than the end-concentration, since cells are added afterwards (80 μl cells to 40 μl prepared medium with treatment). The DR was starting at 20 μM or 10 μM final top concentration and a dilution factor of 3.333. The positive control was the reference compound A1 that was added in a dose response as well, additionally to 3 wells of only 20 μM representing the positive stimulator control. All wells were normalized with DMSO to a final concentration of 0.6% (0.2% end-concentration).
The immunoassay is done following the manufacturer's manual (Invitrogen, #A35603). Additional information: For the immunoassay, MicroAmp™ EnduraPlate™ Optical 384-Well plates are used. Frozen supernatant is thawed and centrifuged for 5 minutes at 1000×g, both steps at 4° C. After centrifugation, required sample amount is taken from the top, and in a separate LightCycler V-bottom plate (working plate) diluted with assay dilution buffer, dilution factor depending on the PBS or CD3 condition but at least 1:3. IL-2 standard and blanks are prepared in the same V-bottom plate, standard with a range of 0.0128-5000 pg/ml (extended version). After preparation, 5 μl of sample dilutions or standard/blanks are transferred to the optical 384-well plate (assay plate) and the 10 μl reaction protocol is being followed. For measurement, the QuantStudio 12K Flex system is used.
ELISA is done following the manufacturer's manual (Thermo Fisher Scientific, #88-7025-88). Additional information: For the ELISA Nunc MaxiSorp 96 well plates are used. Frozen supernatant is thawed and centrifuged for 5 minutes at 1000×g, both steps at 4° C. After that, required sample amount is taken from the top, and in a separate V-bottom plate diluted with ELISA diluent, dilution factor depending on the PBS or CD3 condition. IL-2 standard and blanks are prepared in the same V-bottom plate. After preparation, 50 μl of sample dilutions and 100 μl of standard or blanks are transferred to the Nunc plates.
CD3 and PBS plates were analysed separately in Genedata Screener using Roche Normalization PCT_POS_CTRL with DMSO set as Neutral Control and 20 μM of the reference compound A1 set as Stimulator Control/100%.
For CD3 conditions EC50 and Emax of the fitted sigmoidal curve were reported.

Chain of hDGKzeta(1-928)-N-His (Q13574 whole entry): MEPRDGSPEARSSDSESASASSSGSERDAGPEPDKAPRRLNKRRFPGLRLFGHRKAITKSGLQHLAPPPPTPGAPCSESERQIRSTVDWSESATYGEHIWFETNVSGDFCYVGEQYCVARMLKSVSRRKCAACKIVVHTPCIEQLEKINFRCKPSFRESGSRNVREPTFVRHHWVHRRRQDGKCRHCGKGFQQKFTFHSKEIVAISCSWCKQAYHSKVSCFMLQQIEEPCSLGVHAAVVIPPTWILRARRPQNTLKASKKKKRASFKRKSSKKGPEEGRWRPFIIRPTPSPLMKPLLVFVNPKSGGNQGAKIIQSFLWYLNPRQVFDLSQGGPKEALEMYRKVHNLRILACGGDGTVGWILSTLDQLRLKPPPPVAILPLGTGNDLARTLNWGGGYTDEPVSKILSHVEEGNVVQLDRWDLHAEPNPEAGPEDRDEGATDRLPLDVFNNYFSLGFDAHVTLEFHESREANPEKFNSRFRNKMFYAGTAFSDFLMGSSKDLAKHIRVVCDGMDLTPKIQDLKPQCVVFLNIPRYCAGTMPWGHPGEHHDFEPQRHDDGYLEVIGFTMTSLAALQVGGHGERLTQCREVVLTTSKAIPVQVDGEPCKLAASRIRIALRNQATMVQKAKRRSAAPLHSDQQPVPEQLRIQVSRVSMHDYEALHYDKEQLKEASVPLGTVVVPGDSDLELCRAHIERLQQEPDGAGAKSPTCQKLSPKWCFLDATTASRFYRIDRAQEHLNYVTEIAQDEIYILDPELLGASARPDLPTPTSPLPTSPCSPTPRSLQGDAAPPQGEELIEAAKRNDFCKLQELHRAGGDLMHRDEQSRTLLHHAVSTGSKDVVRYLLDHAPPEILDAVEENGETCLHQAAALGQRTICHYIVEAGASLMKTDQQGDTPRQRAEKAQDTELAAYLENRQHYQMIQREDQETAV
Chain of hDGKalpha(1-735)-N-His (P23743 whole entry): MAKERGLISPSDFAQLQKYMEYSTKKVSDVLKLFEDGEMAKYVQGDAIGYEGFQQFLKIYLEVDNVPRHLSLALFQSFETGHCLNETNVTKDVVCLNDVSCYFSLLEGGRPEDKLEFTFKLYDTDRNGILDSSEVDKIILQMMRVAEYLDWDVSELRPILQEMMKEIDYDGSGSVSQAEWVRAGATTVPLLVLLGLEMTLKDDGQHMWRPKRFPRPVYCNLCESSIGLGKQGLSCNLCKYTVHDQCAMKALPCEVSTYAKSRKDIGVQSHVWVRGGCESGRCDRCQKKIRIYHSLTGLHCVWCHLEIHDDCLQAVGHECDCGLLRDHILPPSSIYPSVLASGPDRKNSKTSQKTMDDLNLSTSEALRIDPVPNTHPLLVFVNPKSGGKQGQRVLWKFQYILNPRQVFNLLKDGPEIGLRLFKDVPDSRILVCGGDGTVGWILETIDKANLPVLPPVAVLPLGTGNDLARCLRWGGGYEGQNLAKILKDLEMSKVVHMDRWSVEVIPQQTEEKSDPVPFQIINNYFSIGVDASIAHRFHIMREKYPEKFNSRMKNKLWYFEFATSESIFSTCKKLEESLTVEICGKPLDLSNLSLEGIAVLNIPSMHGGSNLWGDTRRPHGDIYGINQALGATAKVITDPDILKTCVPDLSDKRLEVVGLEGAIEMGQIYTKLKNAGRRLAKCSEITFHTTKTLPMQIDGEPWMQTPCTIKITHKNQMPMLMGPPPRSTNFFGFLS

SMILES | IC50 (hDGKalpha(1-735)-N-His) [nM] | IC50 (hDGKzeta(1-928)-N-His) [nM] | Emax (primary human T-cells [1]) [%] | EC50 (primary human T-cells [1]) [nM] | Emax (MV-3 cells) [%] | EC50 (MV-3 cells) [nM] | EC50 (primary human T-cells [2]) [nM]
CC(C)(C)c1nnc(-c2cc3c(cc2F)S(=O)(=O)C[C@H](NC(=O)CN)C(=O)N3Cc2ccc(Cl)cc2)o1 [Example 266, 2-amino-N-[(3R)-7-(5-tert-butyl-1,3,4-oxadiazol-2-yl)-5-[(4-chlorophenyl)methyl]-8-fluoro-1,1,4-trioxo-2,3-dihydro-1λ^6,5-benzothiazepin-3-yl]acetamide] | 54500 | 40100 | 137 | 77.5 | 76 | 20 | 214
CC(C)(CO)c1nc(-c2cc3c(cc2F)S(=O)(=O)C[C@H](N)C(=O)N3Cc2ccc(Cl)cc2)no1 [Example 303, (3R)-3-amino-5-[(4-chlorophenyl)methyl]-8-fluoro-7-[5-(2-hydroxy-1,1-dimethyl-ethyl)-1,2,4-oxadiazol-3-yl]-1,1-dioxo-2,3-dihydro-1λ^6,5-benzothiazepin-4-one] | 301 | 251 | 140 | 605 | 92 | 400 | 1070
CC(N)(c1nc(-c2cc3c(cc2F)S(=O)(=O)C[C@H](N)C(=O)N3Cc2ccc(OC(F)(F)F)cc2)no1)C(F)(F)F (stereo partly drawn) [Example 331, (3R)-3-amino-7-[5-(1-amino-2,2,2-trifluoro-1-methyl-ethyl)-1,2,4-oxadiazol-3-yl]-8-fluoro-1,1-dioxo-5-[[4-(trifluoromethoxy)phenyl]methyl]-2,3-dihydro-1λ^6,5-benzothiazepin-4-one] | 857 | 176 | 126 | 58.4 | 116 | 30 | 74.6
CC(C)(C)c1nnc(-c2ccc3c(c2)N(Cc2ccc(Cl)cc2)C(=O)[C@@H](N)CS3(=O)=O)o1 [Example 361] | 876 | 933 | 100 | 361 | 100 | 560 | 525
N[C@H]1CS(=O)(=O)c2ccc(-c3nnc(C4(C5CC5)CCCO4)o3)cc2N(Cc2ccc(Cl)cc2)C1=O (stereo partly drawn) [Example 381, (3R)-3-amino-5-[(4-chlorophenyl)methyl]-7-[5-(2-cyclopropyltetrahydrofuran-2-yl)-1,3,4-oxadiazol-2-yl]-1,1-dioxo-2,3-dihydro-1λ^6,5-benzothiazepin-4-one] | 3310 | 658 | 119 | 2420 | 101 | 160 | 2400
CN1CCCC(F)(c2nnc(-c3ccc4c(c3)N(Cc3ccc(Cl)cc3)C(=O)[C@@H](N)CS4(=O)=O)o2)C1 (stereo partly drawn) [Example 384, (3R)-3-amino-5-[(4-chlorophenyl)methyl]-7-[5-(3-fluoro-1-methyl-3-piperidyl)-1,3,4-oxadiazol-2-yl]-1,1-dioxo-2,3-dihydro-1λ^6,5-benzothiazepin-4-one] | 4580 | 2250 | 112 | 698 | 110 | 990 | 792
CC1(Nc2nnc(-c3ccc4c(c3)N(Cc3ccc(Cl)cc3)C(=O)[C@@H](N)CS4(=O)=O)o2)CC(F)(F)C1 [Example 406, (3R)-3-amino-5-[(4-chlorophenyl)methyl]-7-[5-[(3,3-difluoro-1-methyl-cyclobutyl)amino]-1,3,4-oxadiazol-2-yl]-1,1-dioxo-2,3-dihydro-1λ^6,5-benzothiazepin-4-one] | 5020 | 14000 | 79 | 1860 | 85 | 1540 | 2510
N[C@H]1CS(=O)(=O)c2ccc(-c3nnc(N4CCOC(C(F)(F)F)C4)o3)cc2N(Cc2ccc(Cl)cc2)C1=O (stereo partly drawn) [Example 412, (3R)-3-amino-5-[(4-chlorophenyl)methyl]-1,1-dioxo-7-[5-[2-(trifluoromethyl)morpholin-4-yl]-1,3,4-oxadiazol-2-yl]-2,3-dihydro-1λ^6,5-benzothiazepin-4-one] | 2690 | 484 | 126 | 176 | 92 | 140 | 2360
N[C@H]1CS(=O)(=O)c2ccc(-c3nnc(CC(F)(F)F)o3)cc2N(Cc2ccc(OC(F)(F)F)cc2)C1=O [Example 416, (3R)-3-amino-1,1-dioxo-7-[5-(2,2,2-trifluoroethyl)-1,3,4-oxadiazol-2-yl]-5-[[4-(trifluoromethoxy)phenyl]methyl]-2,3-dihydro-1λ^6,5-benzothiazepin-4-one] | 1450 | 1680 | 58 | 402 | 95 | 530 | 369
N[C@H]1CS(=O)(=O)c2ccc(-c3nnc(C4(N)CCCCC4)o3)cc2N(Cc2ccc(OC(F)(F)F)cc2)C1=O [Example 417, (3R)-3-amino-7-[5-(1-aminocyclohexyl)-1,3,4-oxadiazol-2-yl]-1,1-dioxo-5-[[4-(trifluoromethoxy)phenyl]methyl]-2,3-dihydro-1λ^6,5-benzothiazepin-4-one] | 6410 | 2110 | 70 | 337 | 182 | 1860 | 328
CC(C)(C)c1nnc(-c2ccc3c(c2)N(Cc2ccc(OC4CCCC4)cc2)C(=O)[C@@H](N)CS3(=O)=O)o1 [Example 430, (3R)-3-amino-7-(5-tert-butyl-1,3,4-oxadiazol-2-yl)-5-[[4-(cyclopentoxy)phenyl]methyl]-1,1-dioxo-2,3-dihydro-1λ^6,5-benzothiazepin-4-one] | 467 | 594 | 110 | 97 | 96 | 60 | 24.2
N[C@H]1CS(=O)(=O)c2cc(F)c(-c3nnc(NC4CCC4)o3)cc2N(Cc2ccc(Cl)cc2)C1=O [Example 459, (3R)-3-amino-5-[(4-chlorophenyl)methyl]-7-[5-(cyclobutylamino)-1,3,4-oxadiazol-2-yl]-8-fluoro-1,1-dioxo-2,3-dihydro-1λ^6,5-benzothiazepin-4-one] | 625 | 632 | 91 | 591 | 91 | 330 | 508
N[C@H]1CS(=O)(=O)c2cc(F)c(-c3nnc(NC4CCCCC4)o3)cc2N(Cc2ccc(Cl)cc2)C1=O [Example 466, (3R)-3-amino-5-[(4-chlorophenyl)methyl]-7-[5-(cyclohexylamino)-1,3,4-oxadiazol-2-yl]-8-fluoro-1,1-dioxo-2,3-dihydro-λ^6,5-benzothiazepin-4-one] | 2090 | 1030 | 103 | 454 | 95 | 240 | 458
